Laboratory results taken from paper PMC10861593, “Kisspeptin-10 binding to Gpr54 in osteoclasts prevents bone loss by activating Dusp18-mediated dephosphorylation of Src” (Nature Communications, 2024).
Where a SMILES comes first, the peptide text is derived from it.

What was measured:
DUSP18 [1] = target: T1, DUSP18 (Homo sapiens, UniProt Q8NEJ0); assay: SPR (Biacore T200) binding to DUSP18
T1 construct: For purification of full-length WT human DUSP18 and DUSP18 (C104S) proteins; His (N); made in house; host or cells: E. coli
T1 sequence (Q8NEJ0 1-188): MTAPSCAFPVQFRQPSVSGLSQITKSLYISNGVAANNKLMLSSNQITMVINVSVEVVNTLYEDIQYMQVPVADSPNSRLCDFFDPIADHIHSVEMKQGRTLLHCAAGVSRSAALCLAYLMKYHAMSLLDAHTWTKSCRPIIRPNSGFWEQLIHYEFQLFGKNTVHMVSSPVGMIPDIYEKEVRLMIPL
Description: SPR was determined using a Biacore T200 instrument (GE). SRC or DUSP18 protein was immobilized on the sensor chip (CM5) using the amine-coupling method according to standard protocols. Immobilization was performed according to the manufacturer’s recommendations. SRC protein (64 ug/mL, pH5.0) or DUSP18 protein (25 ug/mL, pH7.4) was diluted in 10 mM acetate buffer or 10 mM PBS buffer. Sh2-sh3 (100 ug/mL, pH5.0) was diluted in 10 mM acetate buffer. The kinetics and affinity assay were examined at 25 °C at a flow rate of 30 µl/minute using PBS buffer with 0.05% Tween-20. The KD values were calculated with the kinetics analysis (1:1 model) of Biacore T200 evaluation software. The interaction of GPR54 CT, peptides of PR motifs with Src or DUSP18, and the interaction of DUSP18 and Src were analyzed respectively by regeneration with pH 2.0 Gly-HCl buffer.
The C terminus of human GPR54 (H329- L398) and mouse Gpr54 (R331- L396) cDNAs were subcloned into a pGEX-4T2 vector. For purification of full-length WT human DUSP18 and DUSP18 (C104S) proteins, DUSP18 was cloned into pMCSG7 vector. […]

GPR54 / Src interaction = assay: Co-IP: interaction of GPR54 with Src in transfected 293T cells; assay type: cell-based, human; conditions: inhibitor 1 h (U73122 10 µM, Staurosporine 0.25 µM, LY3214996 10 µM, KN-93 10 µM, Saracatinib 10 µM), then 10 nM Kp-10 20 min
Description: Data represent means ± SEM. P values were determined by one-way ANOVA analysis (b, c, e, g, i, k). Representative results were obtained from at least three independent experiments. Source data are provided as a Source Data file.
Whole-cell proteins were extracted using 1x RIPA buffer (25 mM Tris, pH7.5, 150 mM NaCl, 0.5% Sodium deoxycholate, 1% Triton-X-100) supplemented with protease inhibitors (Complete Mini, Roche) and phosphatase inhibitors (phosphatase inhibitor cocktail set I and II, Calbiochem). Immunoprecipitation and immunoblotting with indicated antibodies were performed as described in Supplementary Table 1. Image Jsoftware (V1.52) was used for quantification analysis. Uncropped and unprocessed blots are presented in the Supplementary Information file.
Error bars are ± SEM. […] Source data are provided as a Source Data file.

Dusp18 knockout mice = assay: bone and osteoclast parameters in Dusp18 knockout mice; assay type: in vivo, mouse; conditions: TRAP staining and osteoclast parameters, femur
Text: Data represent means ± SEM. […] Representative results were obtained from at least three independent experiments. Source data are provided as a Source Data file.

DUSP18 [2] = assay: GST pull-down with WCL of 293T cells transfected with DUSP18; assay type: binding; conditions: WCL of 293T cells transfected with DUSP18-HA
Description: Beads were analyzed by phosphatase activity assay (a), mass spectrometry assay (b), IB analysis (c) and quantification of protein levels (d). e, f Protein co-localization was analyzed by IF staining in primary pre-osteoclast with 10 nM Kp-10 treatment for 20 min. […] Scale bar, 50 µm. g, h binding affinity was measured by SPR binding analysis. […] Data represent means ± SEM. P values were determined by one-way ANOVA analysis (a, d, j, l) or two-tailed Student’s t-test (f). Representative results were obtained from at least three independent experiments. Source data are provided as a Source Data file.
Supplementary Fig. 6 a, b IB and quantification of protein levels analysis. […] Error bars are ± SEM. P-values were determined by two-tailed Student’s t-test (b, e) or by one-way ANOVA analysis (h, j). *P <0.05, **P <0.01, ***P <0.001, ****P <0.0001. Representative results were observed from at least three independent experiments. Source data are provided as a Source Data file.

Src = assay: GST pull-down with WCL of 293T cells transfected with HA-Src; assay type: binding
Text: Fig. 2 GPR54 recruited Src via the PR motif in GPR54 C-Terminus. a Sequence analysis of the PR motif in multiple species of GPR54 CT. b SH3 domain protein-binding array using the TranSignal™ SH3 Domain Array kit. The principal Src binding region is circled in red evident (1 Src; 2 the dilution of Src in half). c SPR binding-affinity measurement of Src and GPR54 CT. […] GPR54 CT bound with the SH3 domain of Src mainly via the key residues including R336, P339 and P342. e–h IB analysis of total samples and GST pull-downs using GST proteins including GST, GST-GPR54 CT, GST-GPR54 CT m1 (R336A&P339A), GST-GPR54 CT m2 (delta 339–344) incubated separately with WCL of 293 T cells transfected with HA-Src (e) and quantification of protein levels (f), IB analysis of WCL and anti-GPR54 IP assays derived from RAW264.7 cells induced by Kp-10 for 20 min (g) and quantification of protein levels (h). i, j IF staining was carried out using pre-osteoclasts differentiated from BMMs with M-CSF (10 ng/ml) and RANKL (50 ng/ml) stimulation for 2 days, then treated with 10 nM Kp-10 for 20 min. Representative images of endogenous Gpr54 and Src were shown by total internal reflection fluorescence (TIRF) microscopy (i), and the Mander’s overlap coefficient (MOC) as a measure of colocalization in cells from multiple images taken randomly (j). Scale bar, 50 μm. Data represent means ± SEM. […] These are best readings. […]

[3] = target: T2, His-SRC protein, Src (G85-L536) (human, UniProt P12931 85-536); assay: SPR; Biacore T200, SRC protein immobilised on CM5 by amine coupling (64 ug/mL, pH 5.0, acetate); 25 °C, 30 µl/minute, PBS with 0.05% Tween-20; kinetics analysis, 1:1 model; conditions: both partners purified
T2 construct: human Src, G85-L536, in pFastBac HT B; In the SPR it is called 'SRC protein'; removal of the tag is not mentioned; source: Sf9 (Bac-to-Bac baculovirus), purified; not shown: His6, N-terminal, kept

CC(C)[C@H](NC(=O)[C@@H](N)CCCNC(=N)N)C(=O)N[C@@H](CS)C(=O)N1CCC[C@H]1C(=O)N[C@@H](CS)C(=O)N[C@@H](CS)C(=O)N[C@@H](CCCNC(=N)N)C(=O)O [Gpr54^336–342] (H-RVCPCCR-OH; N-terminus and C-terminus assumed)
kon (DUSP18 [1]; printed in the picture of the figure, read-out: ka): 1130 ± 9500 M⁻¹ s⁻¹

COc1ccc(S(=O)(=O)N(CCO)c2ccccc2CN(C)C/C=C/c2ccc(Cl)cc2)cc1 [KN-93]
effect on Kp-10 induced interaction of GPR54 with Src (GPR54 / Src interaction): not by the inhibitors

O=C(Cc1ccc(-c2ccc(OCCN3CCOCC3)cc2)cn1)NCc1ccccc1 [KX2-391]
rescue of Dusp18 deletion induced osteoclast activity (Dusp18 knockout mice): efficiently rescued

COc1ccc2c(c1)CC[C@@H]1[C@@H]2CC[C@]2(C)[C@@H](NCCCCCCN3C(=O)C=CC3=O)CC[C@@H]12 [U73122]
effect on Kp-10 induced interaction of GPR54 with Src (GPR54 / Src interaction): not by the inhibitors

Gpr54^339–344: right-shifted mouse Gpr54 peptide which corresponds to the PxxRxR motif (PCCRQR)
SPR curve when titrated with Dusp18 (DUSP18 [1]; synthesized mouse Gpr54 peptide): generated an unfitted SPR curve

R336A&P339A mutant of human GPR54 CT: GST-GPR54 CT m1 (R336A&P339A)
binding of DUSP18 (GST pull-down) (DUSP18 [2]): dampened its interaction with DUSP18 | binding of Src (GST pull-down) (Src): dramatically dampened the interaction of Src with GPR54 CT

B1: peptide of GPR54^336–356 (peptide, UniProt Q969F8 336-356, looked up)
peptide: RVCPCAPRRPRRPRRPGPSDP
notes: human GPR54 (KiSS1R), residues 336-356 of the PR motif; source: synthetic peptide (GL Biochem)
Kd [3]: 4.24 µM

AFRRVCPCAPRR (peptide, UniProt Q969F8 333-344, looked up, source: synthetic peptide (GL Biochem)) [GPR54^333–344 (N-terminal half of the PR motif)]
Kd [3]: 28.3 µM

B2: △339–344 (deletion sign: △) mutant of GPR54 CT: GST-GPR54 CT m2 (delta 339–344) (protein)
chain: HFRQAFRRVCPRRPRRPGPSDPAAPHAELLRLGSHPAPARAQKPGSSGLAARGLCVLGEDNAPL
modifications: left off: GST, N-terminal, kept
binding of DUSP18 (GST pull-down) (DUSP18 [2]): abolished the binding with DUSP18 | binding of Src (GST pull-down) (Src): completely abolished the binding of Src with GPR54 CT
